{
  "source": "patent US20160175316A1",
  "about": "“METHOD OF PREVENTING OR TREATING ORGAN, HEMATOPOIETIC STEM CELL OR BONE MARROW TRANSPLANT REJECTION” (AbbVie Inc., priority 2006, published 2016)",
  "key": {"activated T cells": {"test_system": "activated T cells", "experiment": "Mouse mixed lymphocyte model, 3H-Thymidine incorporation", "type": "cell-based", "details": "Balb/c and C57BL/6 splenocytes co-cultured for 2 days, 6 hour pulse with 3H-Thy", "description": "Inhibition of ^3H-Thymidine incorporation by EXAMPLE A. 5×10^5 Balb/c and C57BL/6 splenocytes were co-cultured for 2 days with EXAMPLE A, its enantiomer or vehicle control before a 6 hour pulse with ^3H-Thy."}, "activated murine B cells": {"test_system": "activated murine B cells", "experiment": "LPS-stimulated B cell proliferation, 3H-Thy pulse", "type": "cell-based, mouse", "details": "B6 B cells, in vitro stimulation with low doses of LPS, 6 hour pulse", "description": "Untouched B cells from B6 mouse splenocytes were isolated by MACS separation. 2×10^5B cells were cultured with EXAMPLE A, its enantiomer or vehicle control and […] of lipopolysaccharide (LPS) before a 6 hour pulse with ^3H-Thy. Control vs EXAMPLE A (P<0.05 1-way ANOVA using Dunnett's post-hoc). One representative experiment (n=2) is shown."}, "naïve and memory T cells": {"test_system": "naïve and memory T cells", "experiment": "In vivo depletion of naïve and memory T cells in spleen and lymph nodes (flow cytometry)", "parameters": "species or system C57BL/6 mice", "description": "To determine if T cell sensitivity to ABT-737 treatment was predicated on the maturation or differentiation state of a T cell, C57BL/6 mice were treated for 14 consecutive days with either ABT-737 (75 mg/kg) or vehicle control. Spleen and lymph nodes were recovered and the numbers of […]), central memory ([…] effector memory (CD62LloCD44hi) cells determined by flow cytometry."}, "[1]": {"test_system": "cytotoxic T lymphocytes (CTL)", "experiment": "In vivo CTL response after OVA priming", "parameters": "species or system C57BL/6 mice", "details": "75 mg/kg daily for a week, OVA priming on day 6, assay seven days after priming", "description": "Having established the impact of ABT-737 on the steady state immune system, its effects on the development of specific immune responses were next examined. C57BL/6 mice were treated daily for a week with either ABT-737 (75 mg/kg) or vehicle control and on treatment day 6, mice were primed with ovalbumin (OVA) antigen in the form of irradiated OVA-coated H-2Kb+ splenocytes (OCS), a protocol known to induce cytotoxic T lymphocytes (CTL). Seven days after T-cell priming, in vivo CTL responses were assayed by measuring the persistence in spleen and lymph nodes of OVA peptide pulsed target cells, CFSE labeled and injected intravenously."}, "[2]": {"test_system": "NP-specific B cell subsets (germinal center, memory and plasma cells)", "experiment": "In vivo B cell response to NP-KLH immunization", "parameters": "species or system mice", "details": "for memory B cell compartment, established memory: treatment started at day 40 after immunization, 14 days, analyzed day 54; for frequency of ASC in the spleen or the bone marrow, established plasma cells: treatment starting day 40 after immunization", "description": "Mice were immunized with NP-KLH in alum by intraperitoneal injection and then treated with ABT-737 (75 mg/kg) or vehicle control for 14 consecutive days, starting 5 days after immunization. On day 19 after immunization, the numbers of NP-specific B cell subsets (germinal center (GC), memory and plasma cells) were quantified. As depicted in FIG. 5A, FIG. 5B, FIG. 5C, FIG. 5D, FIG. 5E, and FIG. 5F, antigen-specific B cells were detected by flow cytometry on the basis of surface staining for B220, NP and IgG1. […] To determine if memory cells were sensitive during formation or maintenance, mice were immunized and memory was allowed to form before ABT-737 treatment started at day 40 after immunization. The mice were analyzed after 14 days of treatment with ABT-737 or vehicle, i.e., day 54 after immunization. […] Antibody secreting cells (ASC) are also generated during the B cell response to antigen, secreting antibodies specific for the antigen. In the later stages of T cell dependent immune responses, ASC originate in the GC, then migrate to the bone marrow where they compete for access to survival niches in order to become long-lived plasma cells."}, "[3]": {"test_system": "islet allografts in spontaneously diabetic (RIP-Kb/CBA; H-2k) mice", "experiment": "Allogenic islet graft rejection in diabetic mice", "type": "in vivo, mouse", "details": "50 mg/kg intra-peritoneal daily, 14 days; for islet allograft survival versus vehicle treated recipients: graft on day 6", "description": "Non-immune diabetic mice were treated daily for 14 consecutive days with either ABT-737 (50 mg/kg) or vehicle control. On treatment day 6, mice received an allogenic grant of F1(B6×SJL) islets transplanted under the kidney capsule. Blood glucose was measured at various times post-transplantation. Grafts were deemed successful if normal blood glucose (<15 mmol/L) levels were achieved within 4 days post-transplantation.\nViable islets were handpicked under dissecting microscope, pooled and cultured overnight at a density of 200-300 islets/3.5 cm Petri dish in 1.1 ml DME supplemented with 10% FCS at 37° C.; 10% CO2. The following day viable islets were handpicked into aliquots of 400 (of an equivalent size distribution) before grafting into recipient mice.\nSpontaneously diabetic (RIP-Kb/CBA; H-2^k) (Sutherland, R. M., Mountford, J. N., Allison, J., Harrison, L. C., & Lew, A. M., The non-immune RIP-Kb mouse is a useful host for islet transplantation, as the diabetes is spontaneous, mild and predictable. Int J Exp Diabetes Res, 2002, 3:37-45) male mice were treated daily for five consecutive days either with ABT-737 (50 mg/kg) or vehicle control via intra-peritoneal injection as described by Mason, K. D., Carpinelli, M. R., Fletcher, J. I., Collinge, J. E., Hilton, A. A., Ellis, S., Kelly, P. N., Ekert, P. G., Metcalf, D., Roberts, A. W., et al. Programmed anulear cell death delimits platelet life span. Cell (2007) 128:1173-1186. On day 6, mice received an allograft under the left kidney capsule consisting of 400 purified mouse pancreatic islets isolated from male and female donors [(C57Bl/6×SJL) F1; H-2^b,s]. Treatment was then continued daily for 8 days post transplantation. Graft function was monitored by diabetes reversal, determined by measuring blood glucose via tail vein bleed."}, "human pancreatic islets": {"test_system": "human pancreatic islets", "experiment": "Predicted toxicity to pancreatic islets from Bcl-2 family expression profile", "details": "predicted from expression profile of Bcl-2 family proteins such as Mcl-1"}, "[4]": {"details": "75 mg/kg for 14 days starting 5 days after immunization, day 19"}, "[5]": {"details": "treatment starting on day 5 of the response"}},
  "note": "“Also recorded” adds a separate entry of the source.",
  "data": [
    {"smiles": "CN(C)CC[C@H](CSc1ccccc1)Nc1ccc(S(=O)(=O)NC(=O)c2ccc(N3CCN(Cc4ccccc4-c4ccc(Cl)cc4)CC3)cc2)cc1[N+](=O)[O-]", "note": "[EXAMPLE A, N-(4-(4-((4′-chloro(1,1′-biphenyl)-2-yl)methyl)piperazin-1-yl)benzoyl)-4-(((1R)-3-(dimethylamino)-1-((phenylsulfanyl)methyl)propyl)amino)-3-nitrobenzenesulfonamide]", "values": [
      {"measurement": "proliferation of activated T cells (3H-Thymidine incorporation)", "setting": "activated T cells", "result": "inhibits proliferation of activated T cells in a dose dependent manner"},
      {"measurement": "proliferation of activated murine B cells (3H-Thy)", "setting": "activated murine B cells", "result": "inhibits proliferation of activated murine B cells"},
      {"measurement": "central and effector memory CD4+ and effector CD8+ T cells in spleen", "setting": "naïve and memory T cells; 75 mg/kg, 14 consecutive days", "result": "remain refractory"},
      {"measurement": "numbers of naïve and memory T cells (CD4+ and CD8+) in lymph nodes", "setting": "naïve and memory T cells; 75 mg/kg, 14 consecutive days", "result": "significantly reduced"},
      {"measurement": "numbers of naïve cells and CD8+ central memory T cells in spleen", "setting": "naïve and memory T cells; 75 mg/kg, 14 consecutive days", "result": "effectively reduced"},
      {"measurement": "lymphocyte and dendritic cell sub-populations", "setting": "naïve and memory T cells; mouse immune system, summary statement", "result": "depleted selective lymphocyte and dendritic cell sub-populations"},
      {"measurement": "CTL activity", "setting": "[1]", "result": "significantly less CTL activity"},
      {"measurement": "reduction in specific target lysis compared to vehicle treated controls", "setting": "[1]", "result": "approximately 4 fold"},
      {"measurement": "GC (CD38lo) B cells", "setting": "[2]; [4]", "result": "unaffected"},
      {"measurement": "memory (CD38hi) B cells", "setting": "[2]; [4]", "result": "susceptive"},
      {"measurement": "overall number of antigen-specific B cells (B220, NP, IgG1)", "setting": "[2]; [4]", "result": "no significant difference"},
      {"measurement": "GC (CD38lo) B cells", "setting": "[2]; 75 mg/kg for 14 days starting 5 days after immunization, day 19, listed as ABT-737", "result": "refractory"},
      {"measurement": "memory B cell compartment, established memory", "setting": "[2]", "result": "inhibited the persistence of memory B cells"},
      {"measurement": "memory B cell compartment, established memory", "setting": "[2]; listed as ABT-737", "result": "still affected"},
      {"measurement": "frequency of ASC in the spleen or the bone marrow, established plasma cells", "setting": "[2]", "result": "unaffected"},
      {"measurement": "frequency of ASC in the spleen or the bone marrow, established plasma cells", "setting": "[2]; listed as ABT-737", "result": "no reduction"},
      {"measurement": "frequency of antigen-specific IgG1 ASC in the spleen", "setting": "[2]; [5]", "result": "significantly reduced"},
      {"measurement": "frequency of total and high affinity NP-specific ASC in the bone marrow", "setting": "[2]; [5]", "result": "marked reduction"},
      {"measurement": "islet allograft survival versus vehicle treated recipients", "setting": "[3]", "result": "sufficiently immunosuppressive to allow long-term survival of pancreatic allografts"},
      {"measurement": "islet allograft survival versus vehicle treated recipients", "setting": "[3]; listed as ABT-737", "result": "functioned significantly longer; also recorded: survived longer"},
      {"measurement": "duration of allograft function (all mice, n=5)", "setting": "[3]; experiment terminated at 100 days", "result": "≥ 100", "unit": "days post-transplantation"},
      {"measurement": "toxicity to human pancreatic islets", "setting": "human pancreatic islets", "result": "low toxicity"}
    ]}
  ]
}
